Columns and labels:
[1] = tested on: omicron SARS-CoV-2 pseudovirus; test: microbe, parasite or virus in culture; assay type: cell-based; conditions: Severe acute respiratory syndrome-related coronavirus, HEK-293T; n = 5; read-out: IC50, entry of the omicron pseudovirus
[2] = tested on: wild-type SARS-CoV-2 pseudovirus; test: microbe, parasite or virus in culture; assay type: cell-based; conditions: for IC50: Severe acute respiratory syndrome-related coronavirus, HEK-293T, n = 5, read-out: IC50, blocking wild-type viral entry

SMILES	IC50 [1]	IC50 [2]	maximal inhibition compared with RU [2]
O=c1c2ccccc2nc2n1CCc1c-2[nH]c2ccccc12 [RU, rutaecarpine]	1010 nM	1340 nM	–
O=c1c2ccc(Nc3ccccc3)cc2nc2n1CCc1c-2[nH]c2ccccc12 [RU-75]	320 nM	460 nM	almost double that of RU
O=C1c2ccc(Nc3ccccc3)cc2NC2=NCCc3c2n1c1ccccc31 [RU-184]	260 nM	210 nM	almost double that of RU

From PMC11173897, “Computational Docking as a Tool in Guiding the Drug Design of Rutaecarpine Derivatives as Potential SARS-CoV-2 Inhibitors” (Molecules, 2024)
